Experimental data published in the Kinase Knowledgebase extract (Sharma et al. 2016).

Molecular target: EGFR (UniProt P00533)
Sequence (P00533 whole entry, looked up): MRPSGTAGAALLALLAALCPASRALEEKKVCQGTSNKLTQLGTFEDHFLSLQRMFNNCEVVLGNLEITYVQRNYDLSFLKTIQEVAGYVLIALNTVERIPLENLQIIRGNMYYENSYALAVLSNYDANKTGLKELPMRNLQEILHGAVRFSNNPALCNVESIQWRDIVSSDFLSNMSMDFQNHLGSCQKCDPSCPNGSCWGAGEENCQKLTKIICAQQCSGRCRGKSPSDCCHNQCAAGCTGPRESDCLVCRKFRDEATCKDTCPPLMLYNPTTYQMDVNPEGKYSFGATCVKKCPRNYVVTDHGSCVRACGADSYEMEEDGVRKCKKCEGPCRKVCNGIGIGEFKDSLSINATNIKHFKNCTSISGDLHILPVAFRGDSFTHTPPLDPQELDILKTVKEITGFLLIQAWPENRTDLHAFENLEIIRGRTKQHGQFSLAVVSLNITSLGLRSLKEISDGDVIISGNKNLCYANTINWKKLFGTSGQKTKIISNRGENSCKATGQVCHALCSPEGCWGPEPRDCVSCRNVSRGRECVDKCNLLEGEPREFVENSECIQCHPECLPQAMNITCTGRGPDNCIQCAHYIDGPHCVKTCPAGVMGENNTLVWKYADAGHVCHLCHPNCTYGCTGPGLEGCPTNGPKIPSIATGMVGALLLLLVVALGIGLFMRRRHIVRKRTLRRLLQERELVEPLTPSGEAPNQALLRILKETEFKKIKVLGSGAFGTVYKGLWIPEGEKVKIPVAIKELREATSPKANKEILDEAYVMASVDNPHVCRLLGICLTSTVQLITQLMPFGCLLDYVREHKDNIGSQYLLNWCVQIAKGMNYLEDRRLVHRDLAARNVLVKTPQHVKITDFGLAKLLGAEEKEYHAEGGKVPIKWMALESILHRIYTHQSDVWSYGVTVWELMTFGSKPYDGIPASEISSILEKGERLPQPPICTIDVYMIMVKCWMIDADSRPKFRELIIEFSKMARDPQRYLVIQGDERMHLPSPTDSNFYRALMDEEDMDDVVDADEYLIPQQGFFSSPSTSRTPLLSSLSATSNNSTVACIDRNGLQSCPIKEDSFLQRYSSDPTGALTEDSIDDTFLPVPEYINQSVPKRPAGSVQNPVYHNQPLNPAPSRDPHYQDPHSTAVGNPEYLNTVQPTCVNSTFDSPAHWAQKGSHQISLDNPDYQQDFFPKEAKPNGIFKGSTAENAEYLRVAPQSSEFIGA

SMILES	IC50 [nM]
COc1cccc(Sc2ncnc3cc(OC)c(OC)cc23)c1	2000
COc1cc2ncnc(N(C)c3ccccc3)c2cc1OC	200
Clc1cccc(Nc2ncnc3ccccc23)c1	50 to 100
COc1cc2ncnc(Cc3ccccc3)c2cc1OC	≤ 500
COc1ccc2ncnc(Nc3cc(OC)c(OC)c(OC)c3)c2c1	5000
COc1cc2ncnc(Nc3cc(Cl)c(Cl)c(Cl)c3)c2cc1OC	1000
COc1cc2ncnc(NC3CCCCC3)c2cc1OC	< 1000
COc1cc2ncnc(Sc3cccc(Cl)c3)c2cc1OC	100

Now from value to compound:

IC50 [nM]	SMILES
50	COc1cc2ncnc(Nc3ccccc3Cl)c2cc1OC
10000	COc1cc2ncnc(Nc3cccc(C#N)c3)c2cc1OC
5000	COc1cc2ncnc(Nc3ccc(OC(C)C)cc3)c2cc1OC
50	COc1cc2ncnc(Nc3ccc4ccccc4c3)c2cc1OC
50	COc1cccc(Nc2ncnc3cc(OC)c(OC)cc23)c1
10	COc1cc2ncnc(Nc3cccc4ccccc34)c2cc1OC
